Literature values as cited in patent publication US4168274A, “Production of a peracid and an oxirane” (priority 1975, dated 1979).

details: Table I, carboxylic acids and solvents, symbols .infin., v, s, δ

| SMILES | solubility in water |
| --- | --- |
| CCCl [chloroethane] | δ |
| CCCCCC(=O)O [caproic] | δ |
| ClC(Cl)C(Cl)Cl [tetrachloroethane] | δ |
| CC(Cl)CCl (centres unmarked) [propylene dichloride] | δ |
| O=[N+]([O-])c1ccccc1 [nitrobenzene] | δ |

Further lines, results first:

| solubility in water | SMILES |
| --- | --- |
| δ | CCOC(=O)CC [ethyl propionate] |
| δ | CCCCCCC(=O)O [n.heptoic] |
| δ | CCCOCCC [di n-propyl ether] |
